{"source": "patent US9000208B2", "about": "“Glutamate derivatives or salts thereof” (Ajinomoto Co., Inc., priority 2010, dated 2015)", "key": {"[1]": {"experiment": "Evaluation of kokumi taste, quantitative sensory evaluation test", "design": "species or system human", "settings": "for Kokumi Intensity Aftertaste / Kokumi Intensity First-middle taste: score control 0, strong 3, very strong 5, n=4", "protocol": "On the compounds in which the calcium receptor activating action was found (sodium salts of Compound Nos. 1, 7 and 21), the intensity of kokumi-imparting activity was examined by a quantitative sensory evaluation test. In 5 ml of distilled water was dissolved 525 mg of Compound No. 1 described in REFERENCE EXAMPLE I and of REFERENCE […] EXAMPLE I. By adding 16.4 ml of 0.1M sodium hydroxide solution to the resulting solution, the solution was adjusted to pH 6.5 to 7 followed by freeze-drying. The resulting Na salt was provided for use. In addition, 500 mg of Compound No. 7 described in REFERENCE EXAMPLE I and REFERENCE […] EXAMPLE 7 was suspended in 5 ml of distilled water. To the suspension were sequentially added 1.61 ml of 1M sodium hydroxide and 0.8 ml of 2M hydrochloric acid at 0° C. The solid precipitated was taken out by filtration and dried under reduced pressure at 40° C. to give 426 mg of Reference Compound No. 7. After the solid substance obtained was suspended in 10 ml of distilled water, 1.2 ml of 1M sodium hydroxide was added to the suspension and freeze-dried. The resulting Na salt was provided for use. Reference Compound No. 21 was used in the form of the Na salt, which was prepared from Compound No. 21 described in REFERENCE EXAMPLE I and REFERENCE […] EXAMPLE 21 by the same procedures as described above.\nA quantitative sensory evaluation test was conducted as follows. The intensity of kokumi-imparting activity was examined when 0.000001 to 0.1 g/dl of the compound as a sample (No. 1—Na salt) was mixed with distilled water containing sodium glutamate (0.05 g/dl), inosine monophosphate (0.05 g/dl) and sodium chloride (0.5 g/dl). As a reference, γGlu-Cys-Gly and γGlu-Val-Gly were used, each of which is a known kokumi-imparting component. The sample that became acidic to an additive-free control after dissolving the sample was used by adjusting its pH within ±0.2 with NaOH based on the additive-free control. Sensory scoring was defined as a control: 0, strong: 3 and very strong: 5, and performed in n=4. Meanwhile, a “first-middle taste” is intended to mean the taste combining the first taste and middle taste."}, "rat large intestine loop": {"tested_on": "rat large intestine loop", "experiment": "Effect of CaSR agonist on water absorption in rat large intestine loop method (PGE2-treated)", "format": "in vivo", "settings": "male SD (IGS) rat, PGE2 i.p., compound in Tyrode solution in the loop, 1 hour", "protocol": "Under pentobarbital anesthesia the cecum and large intestine were isolated from the abdomen of a male SD (IGS) rat, and a large intestine loop was prepared by ligating a point 5 cm just below the cecum. Immediately after preparing the loop, PGE2 (4 μg/ml/kg, SIGMA) was intraperitoneally administered. Thirty minutes later, 2 ml of Tyrode solution (136.9 mM NaCl, 2.7 mM KCl, 1.8 mM CaCl2.2H2O, 1.04 mM MgCl2.6H2O, 0.04 mM NaH2PO4.2H2O, 5.55 mM glucose and 11.9 mM NaHCO3) was poured into the loop prepared. An hour later, the weight of the loop, the weight when the liquid was removed from the loop and the loop area were measured to calculate the weight per unit area of the liquid that remains in the loop.\nA test compound was dissolved in Tyrode solution (adjusted to pH 6.5 to 7.5), which was provided for tests.\nThe remaining liquid weight per unit area (g/cm^2) was calculated by the following equation. Remaining liquid weight per unit area (g/cm^2)=(loop weight−loop weight when the liquid was removed from the loop)/loop area\nWater absorption was evaluated by calculating the inhibition ratio by the following equation. Inhibition ratio(%)=100−(remaining liquid weight per unit area with a drug−basic average remaining liquid weight per unit area)/(average remaining liquid weight per unit area of vehicle−basic average remaining liquid weight per unit area)×100 […]"}}, "note": "Counter-ions that a name gives are not always drawn. Numbered stars: 1 amine (or outer) side, 2 acyl side, 3 side chain; on linkers, the order of the positions; unused ones are H or OH. Square brackets hold non-standard residues; d marks the D form. Ends that are not written are not given here. γGlu = O=C(O)[C@H](CCC(=O)[*:2])N[*:1]"}
{"molecule": "N[C@@H](CCC(=O)Nc1cccc(S(=O)(=O)O)c1)C(=O)O", "note": "[No. 1-Na salt, N^5-(3-sulfophenyl)-L-glutamine]", "values": [{"measurement": "kokumi-imparting activity", "setting": "[1]; 0.000001 to 0.1 g/dl in water with sodium glutamate 0.05, inosine monophosphate 0.05, sodium chloride 0.5 g/dl", "value": "widely found in the above concentrations"}, {"measurement": "Kokumi Intensity Aftertaste", "setting": "[1]; 0.00001 g/dl", "value": 1.0}, {"measurement": "Kokumi Intensity First-middle taste", "setting": "[1]; 0.00001 g/dl", "value": 0.7}, {"measurement": "Comments on Sensory Evaluation", "setting": "[1]; 0.0001 g/dl", "value": "There was harmony accompanied"}, {"measurement": "Kokumi Intensity Aftertaste", "setting": "[1]; 0.0001 g/dl", "value": 2.0}, {"measurement": "Kokumi Intensity First-middle taste", "setting": "[1]; 0.0001 g/dl", "value": 1.8}, {"measurement": "Kokumi Intensity Aftertaste", "setting": "[1]; 0.0005 g/dl", "value": 3.0}, {"measurement": "Kokumi Intensity First-middle taste", "setting": "[1]; 0.0005 g/dl", "value": 2.6}, {"measurement": "Kokumi Intensity Aftertaste", "setting": "[1]; 0.001 g/dl", "value": 3.6}, {"measurement": "Kokumi Intensity First-middle taste", "setting": "[1]; 0.001 g/dl", "value": 3.2}, {"measurement": "Comments on Sensory Evaluation", "setting": "[1]; 0.01 g/dl", "value": "All tastes were strong."}, {"measurement": "Kokumi Intensity Aftertaste", "setting": "[1]; 0.01 g/dl", "value": 5.0}, {"measurement": "Kokumi Intensity First-middle taste", "setting": "[1]; 0.01 g/dl", "value": 5.0}]}
{"molecule": "N[C@@H](CCC(=O)Nc1cc(Cl)cc(S(=O)(=O)O)c1O)C(=O)O", "note": "[No. 7-Na salt, N^5-(5-chloro-2-hydroxy-3-sulfophenyl)-L-glutamine]", "values": [{"measurement": "Comments on Sensory Evaluation", "setting": "[1]; 0.00005 g/dl", "value": "Thickness mainly in the middle taste."}, {"measurement": "Kokumi Intensity Aftertaste", "setting": "[1]; 0.00005 g/dl", "value": 2.5}, {"measurement": "Kokumi Intensity First-middle taste", "setting": "[1]; 0.00005 g/dl", "value": 2.2}, {"measurement": "Kokumi Intensity Aftertaste", "setting": "[1]; 0.0001 g/dl", "value": 3.2}, {"measurement": "Kokumi Intensity First-middle taste", "setting": "[1]; 0.0001 g/dl", "value": 2.5}, {"measurement": "Comments on Sensory Evaluation", "setting": "[1]; 0.0005 g/dl", "value": "Rich thickness in the middle taste"}, {"measurement": "Kokumi Intensity Aftertaste", "setting": "[1]; 0.0005 g/dl", "value": 4.0}, {"measurement": "Kokumi Intensity First-middle taste", "setting": "[1]; 0.0005 g/dl", "value": 3.3}]}
{"molecule": "Cc1c(Cl)cc(NC(=O)CC[C@H](N)C(=O)O)cc1S(=O)(=O)O", "note": "[No. 21-Na salt, N^5-(3-chloro-4-methyl-5-sulfophenyl)-L-glutamine]", "values": [{"measurement": "Kokumi Intensity Aftertaste", "setting": "[1]; 0.0002 g/dl", "value": 2.0}, {"measurement": "Kokumi Intensity First-middle taste", "setting": "[1]; 0.0002 g/dl", "value": 1.5}, {"measurement": "Kokumi Intensity Aftertaste", "setting": "[1]; 0.0005 g/dl", "value": 3.1}, {"measurement": "Kokumi Intensity First-middle taste", "setting": "[1]; 0.0005 g/dl", "value": 2.6}, {"measurement": "Kokumi Intensity Aftertaste", "setting": "[1]; 0.001 g/dl", "value": 3.7}, {"measurement": "Kokumi Intensity First-middle taste", "setting": "[1]; 0.001 g/dl", "value": 3.1}]}
{"molecule": "N[C@@H](CCC(=O)Nc1cccc(S(=O)(=O)O)c1)C(=O)O", "note": "[Reference Compound No. 1, N^5-(3-sulfophenyl)-L-glutamine]", "values": [{"measurement": "Water absorption", "setting": "rat large intestine loop", "value": "promoted dose-dependently"}]}
{"molecule": "N[C@@H](CCC(=O)Nc1cc(Cl)cc(S(=O)(=O)O)c1O)C(=O)O", "note": "[Reference Compound No. 7, N^5-(5-chloro-2-hydroxy-3-sulfophenyl)-L-glutamine]", "values": [{"measurement": "Water absorption", "setting": "rat large intestine loop", "value": "promoted in a dose-dependent manner"}]}
{"molecule": "[γGlu]-Cys-Gly", "values": [{"measurement": "Comments on Sensory Evaluation", "setting": "[1]; 0.01 g/dl", "value": "Richness, thickness and continuity"}, {"measurement": "Kokumi Intensity Aftertaste", "setting": "[1]; 0.01 g/dl", "value": 3.0}, {"measurement": "Kokumi Intensity First-middle taste", "setting": "[1]; 0.01 g/dl", "value": 3.0}]}
{"molecule": "[γGlu]-Val-Gly", "values": [{"measurement": "Comments on Sensory Evaluation", "setting": "[1]; 0.001 g/dl", "value": "Smoothness, richness and growth"}, {"measurement": "Kokumi Intensity Aftertaste", "setting": "[1]; 0.001 g/dl", "value": 3.0}, {"measurement": "Kokumi Intensity First-middle taste", "setting": "[1]; 0.001 g/dl", "value": 2.5}, {"measurement": "Comments on Sensory Evaluation", "setting": "[1]; 0.005 g/dl", "value": "Smoothness, richness and growth"}, {"measurement": "Kokumi Intensity Aftertaste", "setting": "[1]; 0.005 g/dl", "value": 4.0}, {"measurement": "Kokumi Intensity First-middle taste", "setting": "[1]; 0.005 g/dl", "value": 3.5}]}
